Test results published in US20240245696A1, “INHIBITORS OF DNA PK AND USES THEREOF” (BioVentures, LLC, priority 2017, published 2024).

Assays:
PD-1 = assay: qPCR of PD-1 expression in stimulated Jurkat cells; format: cell-based, human; conditions: PHA+PMA stimulation
Protocol: (§1) Evaluation of PD-1 and IL-2 expression: The effect of NU7441 on the expression of PD-1, a protein with immunosuppressant function, and IL-2 was examined in Jurkat cells following stimulation with PHA+PMA and treatment with the inhibitor NU7441. qPCR analysis was performed using primers specific for PD1 and IL-2 sequences.

IL-2 = assay: qPCR of IL-2 expression in stimulated Jurkat cells; format: cell-based, human; conditions: PHA+PMA stimulation
Protocol: as §1

Compound: C=CC[C@@H]1/C=C(\C)C[C@H](C)C[C@H](OC)[C@H]2O[C@@](O)(C(=O)C(=O)N3CCCC[C@H]3C(=O)O[C@H](/C(C)=C/[C@@H]3CC[C@@H](O)[C@H](OC)C3)[C@H](C)[C@@H](O)CC1=O)[C@H](C)C[C@@H]2OC [FK506, Tacrolimus]
- expression level of PD-1 (PD-1): significantly reduce expression
- IL-2 expression (IL-2): reduced
